{"source": "patent US12558386B2", "about": "“Methods and compositions to modulate antibiotic resistance and gastrointestinal microbiota” (OHIO STATE INNOVATION FOUNDATION, priority 2018, dated 2026)", "key": {"[1]": {"system": "E. coli CA-20", "experiment": "MIC assessment (TREK Sensititre)", "assay_type": "cell-based, Escherichia coli", "settings": "Escherichia coli, CA20; E. coli CA-20; read-out: MIC", "experimental": "(§1) Bacterial strains. Multiple Amp^r strains from feces of broiler chickens without antibiotic treatment were recovered on Columbia blood Agar base (Becton, […] Dickinson and Company, Franklin Lakes, NJ) supplemented with 5% defibrinated sheep blood (Thermo Scientific™, Grand Island, NY). The strains were maintained in Columbia broth (Becton Dickinson and Company, Franklin Lakes, NJ), and propagated by aerobic growth at 37° C., and further subjected to strain identification and Minimum Inhibition Concentration (MIC) assessments.\n(§2) Minimum inhibition concertation (MIC) assessment. A TREK Sensititre diagnostic system (Thermo scientific, Oakwood Village, OH, USA) was used to assess the AR phenotype and MIC of isolated strains. Protocols to use this system can be found on www.trekds.com. Cation-adjusted Mueller Hinton Broth (Becton, Dickinson and Company, MD, USA) was used as basic medium."}, "[2]": {"system": "E. coli CA-4", "experiment": "MIC assessment (TREK Sensititre)", "assay_type": "cell-based, Escherichia coli", "settings": "Escherichia coli, CA4; E. coli CA-4; read-out: MIC", "experimental": "as §1, §2"}, "[3]": {"system": "Lactobacillus crispatus CG-12", "experiment": "MIC assessment (TREK Sensititre)", "assay_type": "cell-based", "settings": "Lactobacillus crispatus, CG12; L. crispatus CG-12; read-out: MIC", "experimental": "Multiple commensal bacterial strains from chicken feces were recovered from Columbia blood Agar base (Becton, […] Dickinson and Company, Franklin Lakes, NJ) supplemented with 5% defibrinated sheep blood (Thermo Scientific™, Grand Island, NY), and maintained in Columbia broth (Becton Dickinson and Company, Franklin Lakes, NJ) and propagated by anaerobic growth at 37° C. The strains were subjected to antibiotic susceptibility assessment followed by strain identification.\nas §2"}, "[4]": {"system": "Three Amp^r E. coli", "experiment": "MIC assessment, summary for the three strains", "assay_type": "cell-based, Escherichia coli", "settings": "E. coli CA-1, CA-4 and CA-20 together", "experimental": "as §1, §2"}, "[5]": {"system": "16S rRNA gene pool", "experiment": "Chicken model, qPCR of fecal DNA", "assay_type": "in vivo, Leghorn chicken", "settings": "Lc = Lc-Amp group, Amp = Saline-Amp group", "text": "(§3) The chicken model. All procedures were approved by the Institutional Animal Care and Use Committee (protocol No. 2012A00000061, The Ohio State University, Columbus, OH). Leghorn chicken were hatched and maintained at the Ohio Agricultural Research and Development Center (OARDC) poultry research teaching farm (two birds per cage with separate feed and water supply, controlled temperature, filtered air in the room and sterilized feed). Chicken fecal samples were collected on-site and examined for the presence of blaCMY-2 gene pools and microbial profile. Beginning on Day 5 post-hatch, chicken were inoculated with a blaCMY-2^+ E. coli cocktail (0.2 mL/bird, 10^6 CFU/mL) every 24 hours for 4 consecutive days via gavage feeding using 20 ga×1.5 inch animal feeding needle (Fine Science Tools, Foster City, CA, USA). Chickens in non-inoculated control groups were fed with 0.2 mL of saline by the same method. Chickens were then set in cages for 11 days before antibiotic treatment, allowing the microbiota to stabilize.\n(§4) Lactobacillus crispatus and antibiotic administration. Lactobacillus crispatus CG-12 was susceptible to ampicillin. To monitor the impact of CG-12 on AR profiles during common ampicillin administration practice, low veterinary Amp dosages (30 mg/kg body weight per day) were selected instead of 300 mg/kg/day. Lactobacillus crispatus CG-12 was administrated in three periods: 1) Day 2 to Day 4 post-hatch; 2) throughout the stabilization; and 3) post-antibiotic challenge on Day 25 to Day 28. During these periods, chickens were inoculated with a Lactobacillus crispatus CG-12 suspension (0.2 mL/bird, 10^6 CFU/mL) every 24 hours for 4 consecutive days via gavage feeding using 20 ga×1.5 inch animal feeding needle (Fine Science Tools, Foster City, CA, USA). Each group contained at least 6 chickens.\n(§5) Sample collection. Fresh feces were collected from each chicken on-site in the rearing facility. Fecal samples were collected at the 1st and last day of Lactobacillus inoculation, once a day during the antibiotic administration period, and once every three days during antibiotic withdrawal period up to 14 days from initial antibiotic exposure.\n(§6) DNA extraction. Total DNA from chicken fecal samples for real-time quantitative PCR (qPCR) and denaturing gradient gel electrophoresis (DGGE) analyses were extracted according to a published method (Yu and Morrison 2004).\n(§7) Real-time quantitative PCR. TaqMan real-time PCR protocol was used to assess blaCMY-2 and 16S rRNA gene pools in total DNA extracted from chicken fecal samples, as described previously (Zhang et al., 2013). […] Each sample was assessed and analyzed in duplicates on a CFX96 system (Bio-Rad, Hercules, CA, USA)."}, "[6]": {"system": "blaCMY-2 gene pool", "experiment": "Chicken model, qPCR of fecal DNA", "assay_type": "in vivo, Leghorn chicken", "settings": "Lc = Lc-Amp group, Amp = Saline-Amp group", "text": "as §3, §4, §5, §6, §7"}, "[7]": {"system": "fecal microbiota", "experiment": "Chicken study, probiotics and ESBL E. coli followed by oral or injected Amp (FIG. 6)", "assay_type": "in vivo, chickens", "settings": "Group 7 and Group 5, with or without ESBL E. coli inoculation", "text": "FIGS. 6A and 6B show probiotics and ESBL inoculation on the profiles of poultry fecal microbiota followed by oral or injective antibiotic treatment. FIG. 6A) Phylum level; FIG. 6B) Class level. Group 1: probiotic cocktail treatment throughout, E coli exposure from Day 5 for 4 days and then oral Amp; Group 2: probiotic/peanut butter treatment throughout followed by E coli exposure and then oral Amp; Group 3: inoculated (E coli) then exposed to oral Amp, Group 4: noninoculated then exposed to oral Amp, Group 5: noninoculated then exposed to injective Amp, Group 6: noninoculated then exposed to saline; Group 7: inoculated (E coli) then exposed to injective Amp.\nIt was recognized that even if antibiotic resistant bacteria may be reduced by probiotic treatment, some of those resistant bacteria seeds might still retain in the microbiota, and could pop up again when exposed to antibiotics. Therefore in another set of the experiment, following probiotic and ESBL E. coli exposure, the chickens were further treated with Amp by oral or muscle injection. […] But Probiotic treated chickens (Group 1 &2) retained more Firmicutes or Cynobacteria than chickens without probiotic treatment (Group 3 with inoculated ESBL E. coli & Group 4 natural flora, with one outlier). […]"}, "[8]": {"settings": "Day 21, during oral Amp 30 mg/kg/day"}}}
{"smiles": "CC1(C)S[C@@H]2[C@H](NC(=O)[C@H](N)c3ccccc3)C(=O)N2[C@H]1C(=O)O", "note": "[AMP, ampicillin]", "values": [{"measurement": "MIC", "setting": "[1]", "result": "> 16", "unit": "µg/mL"}, {"measurement": "MIC", "setting": "[2]", "result": "> 16", "unit": "µg/mL"}, {"measurement": "MIC", "setting": "[3]", "result": 0.5, "unit": "µg/mL"}, {"measurement": "resistance phenotype from MIC, in words", "setting": "[4]", "result": "high resistance"}, {"measurement": "16S rRNA gene pool", "setting": "[5]; [8]", "result": "8.5±0.7 log10 (gene copies/g)"}, {"measurement": "16S rRNA gene pool", "setting": "[5]; Day 25, after Amp treatment", "result": "10.5±1.0 log10 (gene copies/g)"}, {"measurement": "blaCMY-2 gene pool", "setting": "[6]; [8]", "result": "8.7±0.8 log10 (gene copies/g)"}, {"measurement": "blaCMY-2 gene pool", "setting": "[6]; Day 25, after Amp treatment", "result": "9.8±0.9 log10 (gene copies/g)"}, {"measurement": "retention of Firmicutes, injection versus oral", "setting": "[7]", "result": "significant difference in retaining Firmicutes"}]}
